Source: US11078204B2, “Heterocyclic derivatives as PI3K inhibitors” (Incyte Corporation, priority 2018, dated 2021)
pIC50: −log10 of the molar value. Where a name gives a salt, the structure may show the parent alone.

Experiments:
[1] = molecular target: PI3Kγ (p110γ) Recombinant Human Protein (Homo sapiens (Human), UniProt P48736); assay: PI3K-γ Scintillation Proximity Assay; type: biochemical; conditions: 20 μM PIP2, 2 μM ATP, 13 nM PI3Kγ, 120 min
Description: Example B. PI3K-γ Scintillation Proximity Assay
(§1) [γ-^33P]ATP (10 mCi/mL) and Wheat Germ Agglutinin (WGA) YSi SPA Scintillation Beads was purchased from Perkin Elmer (Waltham, Mass.). Lipid kinase substrate, D-myo-Phosphatidylinositol 4,5-bisphosphate (PtdInS(4,5)P2)D (+)-sn-1,2-di-O-octanoylglyceryl, 3-O-phospho linked (PIP2), CAS 204858-53-7, was purchased from Echelon Biosciences (Salt Lake City, Utah). PI3Kγ (p110γ) Recombinant Human Protein was purchased from Life technology (Grand Island, N.Y.). ATP, MgCl2, DTT, EDTA, MOPS and CHAPS were purchased from Sigma Aldrich (St. Louis, Mo.).
(§2) The kinase reaction was conducted in polystyrene 384-well Greiner Bio-one white plate from Thermo Fisher Scientific in a final volume of 25 μL. Inhibitors were first diluted serially in DMSO and added to the plate wells before the addition of other reaction components. The final concentration of DMSO in the assay was 2%. The PI3Kγ assay was carried out at room temperature in 20 mM MOPS, pH 6.7, 10 mM MgCl2, 5 mM DTT and CHAPS 0.03%. Reactions were initiated by the addition of ATP, the final reaction mixture consisted of 20 μM PIP2, 2 μM ATP, 0.5 μCi [γ-^33p]ATP, 13 nM PI3Kγ. Reactions were incubated for 120 min and terminated by the addition of 40 μL SPA beads suspended in quench buffer: 163 mM potassium phosphate pH 7.8, 20% glycerol, 25 mM EDTA. The final concentration of SPA beads is 1.0 mg/mL. After the plate sealing, plates were shaken overnight at room temperature and centrifuged at 1500 rpm for 10 min, the radioactivity of the product was determined by scintillation counting on Topcount (PerkinElmer). IC50 determination was performed by fitting the curve of percent of the solvent control activity versus the log of the inhibitor concentration using the GraphPad Prism 6.0 software.

[2] = test system: Phosphorylated Ribosomal Protein S6 (RPS6) in THP-1 cells; assay: THP-1 RPS6 ELISA Assay; type: cell-based; conditions: Homo sapiens, 2 hours compound, 10 nM MCP-1 for 15 minutes, Phospho-RPS6 ELISA, read-out: PI3Kγ_THP1_RPS6_ELISA IC50
Procedure: Example A. THP-1 RPS6 ELISA Assay To measure the Phosphorylated Ribosomal Protein S6 (RPS6) in cell lysates, THP-1 cells (Human Acute Monocytic Leukemia) are purchased from ATCC (Manassas, Va.) and maintained in RPMI with 10% FBS (Gibco/Life Technologies, Carlsbad, Calif.). For the assay, THP-1 cells are serum starved overnight in RPMI, then plated in RPMI (2×10^5 cells/well in 90 μL) into 96-well flat-bottom tissue culture treated plates (Corning, Corning, N.Y.), in the presence or absence of a concentration range of test compounds. Covered plates are incubated for 2 hours at 37° C., 5% CO2 then treated with or without 10 nM MCP-1 (MYBioSource, San Diego, Calif.) for 15 minutes at 37° C., 5% CO2. Plates are centrifuged at 1600 RPM and supernatants are removed. Cells are lysed in Lysis Buffer (Cell Signaling, Danvers, Mass.) with Protease Inhibitor (Calbiochem/EMD, Germany), PMSF (Sigma, St Louis Mo.), HALTS (Thermo Fisher, Rockford, Ill.) for 30 min on wet ice. Cell lysates are frozen at −80° C. before testing. The lysates are tested in the Human/Mouse/Rat Phospho-RPS6 ELISA (R&D Systems, Inc. Minn, Minn.). The plate is measured using a microplate reader (SpectraMax M5-Molecular Devices, LLC Sunnyvale, Calif.) set to 450 nm with a wavelength correction of 540. IC50 determination is performed by fitting the curve of inhibitor percent inhibition versus the log of the inhibitor concentration using the GraphPad Prism 5.0 software.

[3] = molecular target: PI3Kδ (p110δ/p85α) Recombinant Human Protein (Homo sapiens (Human), UniProt O00329); assay: PI3Kδ Scintillation Proximity Assay; type: biochemical; conditions: 20 μM PIP2, 2 μM ATP, 3.4 nM PI3Kδ, 120 min
Chain of PI3Kδ (p110δ/p85α) Recombinant Human Protein (O00329 whole entry): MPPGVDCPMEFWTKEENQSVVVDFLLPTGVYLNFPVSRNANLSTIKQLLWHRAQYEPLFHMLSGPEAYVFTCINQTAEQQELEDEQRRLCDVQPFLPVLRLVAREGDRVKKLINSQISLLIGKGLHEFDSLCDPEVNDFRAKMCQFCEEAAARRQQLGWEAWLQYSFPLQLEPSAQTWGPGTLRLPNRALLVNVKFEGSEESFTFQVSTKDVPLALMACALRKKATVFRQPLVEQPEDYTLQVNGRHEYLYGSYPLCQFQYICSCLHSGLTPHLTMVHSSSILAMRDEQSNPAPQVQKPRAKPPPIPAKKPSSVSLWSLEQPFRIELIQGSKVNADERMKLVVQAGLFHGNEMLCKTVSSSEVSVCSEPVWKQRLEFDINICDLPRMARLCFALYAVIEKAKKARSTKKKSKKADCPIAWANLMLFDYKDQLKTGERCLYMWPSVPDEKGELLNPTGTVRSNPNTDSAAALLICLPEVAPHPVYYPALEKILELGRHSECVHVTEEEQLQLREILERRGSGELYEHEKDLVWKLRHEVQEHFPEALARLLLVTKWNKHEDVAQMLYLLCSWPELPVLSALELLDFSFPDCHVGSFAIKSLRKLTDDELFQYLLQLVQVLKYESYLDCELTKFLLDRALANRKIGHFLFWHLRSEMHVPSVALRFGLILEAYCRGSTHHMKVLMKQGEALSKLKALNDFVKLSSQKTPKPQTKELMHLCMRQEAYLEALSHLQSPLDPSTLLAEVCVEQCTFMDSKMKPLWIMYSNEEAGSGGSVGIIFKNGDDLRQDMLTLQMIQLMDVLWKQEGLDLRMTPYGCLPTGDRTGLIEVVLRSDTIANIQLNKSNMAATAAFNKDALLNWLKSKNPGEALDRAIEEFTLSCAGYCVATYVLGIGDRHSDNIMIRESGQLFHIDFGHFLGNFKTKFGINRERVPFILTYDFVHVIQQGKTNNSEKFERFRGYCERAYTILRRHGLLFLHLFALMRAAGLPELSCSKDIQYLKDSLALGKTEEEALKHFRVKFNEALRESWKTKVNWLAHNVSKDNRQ
Chain of PI3Kδ (p110δ/p85α) Recombinant Human Protein (P27986 whole entry partner): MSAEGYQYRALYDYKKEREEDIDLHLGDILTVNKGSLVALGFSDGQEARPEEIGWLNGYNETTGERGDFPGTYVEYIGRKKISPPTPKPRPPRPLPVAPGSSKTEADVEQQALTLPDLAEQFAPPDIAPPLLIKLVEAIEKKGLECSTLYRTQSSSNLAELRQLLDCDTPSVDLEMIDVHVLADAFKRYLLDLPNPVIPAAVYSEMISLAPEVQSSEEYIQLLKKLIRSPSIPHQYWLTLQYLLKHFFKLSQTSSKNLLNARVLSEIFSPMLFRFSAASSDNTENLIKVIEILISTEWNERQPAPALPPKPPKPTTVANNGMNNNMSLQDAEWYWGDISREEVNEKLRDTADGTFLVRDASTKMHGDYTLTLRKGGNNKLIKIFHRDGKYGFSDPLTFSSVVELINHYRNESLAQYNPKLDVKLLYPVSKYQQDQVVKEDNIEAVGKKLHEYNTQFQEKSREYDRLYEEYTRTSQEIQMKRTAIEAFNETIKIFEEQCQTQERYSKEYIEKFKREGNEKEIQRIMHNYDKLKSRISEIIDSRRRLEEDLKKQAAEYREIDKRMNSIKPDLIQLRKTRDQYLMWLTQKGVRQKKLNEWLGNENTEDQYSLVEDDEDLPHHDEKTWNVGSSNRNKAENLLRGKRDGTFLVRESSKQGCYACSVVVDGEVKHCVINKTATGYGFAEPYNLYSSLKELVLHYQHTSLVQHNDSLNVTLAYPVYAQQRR
Description: Example C. PI3Kδ Scintillation Proximity Assay
as §1, with “PI3Kδ (p110δ/p85α)” for “PI3Kγ (p110γ)”, “Eurofins (St Charles, Mo.).” for “Life technology (Grand Island, N.Y.).”
as §2, with “PI3Kδ” for “PI3Kγ”, “[γ-^33P]ATP, 3.4” for “[γ-^33p]ATP, 13”, “PI3Kδ.” for “PI3Kγ.”

Chain of PI3Kγ (p110γ) Recombinant Human Protein (P48736 whole entry): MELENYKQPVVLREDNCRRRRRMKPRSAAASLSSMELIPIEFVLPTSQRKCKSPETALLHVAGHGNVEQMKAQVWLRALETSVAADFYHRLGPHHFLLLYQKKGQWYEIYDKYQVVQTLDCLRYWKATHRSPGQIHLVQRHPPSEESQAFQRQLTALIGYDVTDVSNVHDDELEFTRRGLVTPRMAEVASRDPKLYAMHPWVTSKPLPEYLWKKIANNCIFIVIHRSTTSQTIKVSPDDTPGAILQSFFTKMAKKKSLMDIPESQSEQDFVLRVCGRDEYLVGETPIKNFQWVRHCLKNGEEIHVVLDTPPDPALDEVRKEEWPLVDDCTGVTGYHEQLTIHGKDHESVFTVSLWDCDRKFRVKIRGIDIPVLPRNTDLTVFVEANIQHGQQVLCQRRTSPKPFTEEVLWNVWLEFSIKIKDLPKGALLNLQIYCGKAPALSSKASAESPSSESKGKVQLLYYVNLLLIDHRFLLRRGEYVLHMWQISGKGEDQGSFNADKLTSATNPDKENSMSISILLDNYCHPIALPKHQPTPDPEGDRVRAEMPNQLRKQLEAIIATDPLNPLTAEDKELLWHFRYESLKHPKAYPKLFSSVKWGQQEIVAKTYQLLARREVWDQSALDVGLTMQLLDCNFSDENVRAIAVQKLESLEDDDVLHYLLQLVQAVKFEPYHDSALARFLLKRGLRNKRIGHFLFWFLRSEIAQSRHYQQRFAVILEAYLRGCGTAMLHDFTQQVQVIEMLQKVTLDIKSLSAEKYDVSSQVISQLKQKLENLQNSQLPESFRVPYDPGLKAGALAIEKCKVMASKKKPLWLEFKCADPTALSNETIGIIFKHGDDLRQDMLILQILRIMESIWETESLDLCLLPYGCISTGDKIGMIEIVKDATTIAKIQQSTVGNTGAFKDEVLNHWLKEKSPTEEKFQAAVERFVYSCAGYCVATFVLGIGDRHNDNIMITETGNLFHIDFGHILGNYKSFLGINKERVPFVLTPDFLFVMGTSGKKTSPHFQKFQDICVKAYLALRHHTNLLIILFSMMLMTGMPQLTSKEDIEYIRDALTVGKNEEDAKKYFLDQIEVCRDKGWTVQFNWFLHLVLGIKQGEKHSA

pIC50 [1] | pIC50 [2] | pIC50 [3] | Compound
≥ 7.00 | ≤ 6.00 | ≥ 6.30 | CSc1cc(-c2cnc3c(N)nc(C(F)(F)F)cn23)cc2c1C(=O)N([C@@H](C)C1CC1)C2 [Example 2, (S)-5-(8-Amino-6-(trifluoromethyl)imidazo[1,2-a]pyrazin-3-yl)-2-(1-cyclopropylethyl)-7-(methylthio)isoindolin-1-one]
≥ 7.00 | ≤ 6.00 | > 5.70 | C[C@@H](C1CC1)N1Cc2cc(-c3cnc4c(N)ncnn34)cc(C(O)(CO)C(F)(F)F)c2C1=O (mixture of isomers) [Example 39, 5-(4-Aminoimidazo[2,1-f][1,2,4]triazin-7-yl)-2-((S)-1-cyclopropylethyl)-7-(1,1,1-trifluoro-2,3-dihydroxypropan-2-yl)isoindolin-1-one, trifluoroacetate salt]
≥ 7.00 | ≤ 6.00 | > 5.70 | C[C@@H](C1CC1)N1Cc2cc(-c3cnc4c(N)nc(C(F)(F)F)cn34)cc(S(C)(=O)=O)c2C1=O [Example 3, (S)-5-(8-Amino-6-(trifluoromethyl)imidazo[1,2-a]pyrazin-3-yl)-2-(1-cyclopropylethyl)-7-(methylsulfonyl)isoindolin-1-one]
≥ 7.00 | ≤ 6.00 | ≤ 5.70 | C[C@@H](C1CC1)N1Cc2cc(-c3cnc4c(N)nc(C(=O)NC5CCOCC5O)cn34)ccc2C1=O (mixture of isomers) [Example 32, 8-Amino-3-(2-((S)-1-cyclopropylethyl)-1-oxoisoindolin-5-yl)-N-(3-hydroxytetrahydro-2H-pyran-4-yl)imidazo[1,2-a]pyrazine-6-carboxamide, trifluoroacetate salt]
≥ 7.00 | > 6.00 | > 5.70 | C[C@@H](C1CC1)N1Cc2cc(-c3cnc4c(N)ncnn34)cc(C(C)(C)O)c2C1=O [Example 17, (S)-5-(4-Aminoimidazo[2,1-f][1,2,4]triazin-7-yl)-2-(1-cyclopropylethyl)-7-(2-hydroxypropan-2-yl)isoindolin-1-one trifluoroacetate salt]
≥ 7.00 | ≤ 6.00 | ≥ 6.30 | CC(O)c1cc(-c2cnc3c(N)ncnn23)cc2c1C(=O)N([C@@H](C)C1CC1)C2 (mixture of isomers) [Example 16, 5-(4-Aminoimidazo[2,1-f][1,2,4]triazin-7-yl)-2-((S)-1-cyclopropylethyl)-7-(1-hydroxyethyl)isoindolin-1-one trifluoroacetate salt]
≥ 7.00 | ≤ 6.00 | ≥ 6.30 | CC(=O)c1cc(-c2cnc3c(N)ncnn23)cc2c1C(=O)N([C@@H](C)C1CC1)C2 [Example 15, (S)-7-Acetyl-5-(4-aminoimidazo[2,1-f][1,2,4]triazin-7-yl)-2-(1-cyclopropylethyl)isoindolin-1-one trifluoroacetate salt]
≥ 7.00 | ≥ 6.30 | ≥ 6.30 | C[C@@H](C1CC1)N1Cc2cc(-c3cnc4c(N)nc(-c5ccnn5C)cn34)cc(S(C)(=O)=O)c2C1=O [Example 36, (S)-5-(8-Amino-6-(1-methyl-1H-pyrazol-5-yl)imidazo[1,2-a]pyrazin-3-yl)-2-(1-cyclopropylethyl)-7-(methylsulfonyl)isoindolin-1-one, trifluoroacetate salt]
≥ 7.00 | ≤ 6.00 | ≥ 6.30 | C[C@@H](C1CC1)N1Cc2cc(-c3cnc4c(N)ncnn34)cc(Cl)c2C1=O [Example 7, (S)-5-(4-Aminoimidazo[2,1-f][1,2,4]triazin-7-yl)-7-chloro-2-(1-cyclopropylethyl)isoindolin-1-one]
≥ 7.00 | > 6.00 | ≥ 6.30 | C[C@@H](C1CC1)N1Cc2cc(-c3cnc4c(N)nc(C(=O)NC5CCOCC5)cn34)cc(S(C)(=O)=O)c2C1=O [Example 29, (S)-8-Amino-3-(2-(1-cyclopropylethyl)-7-(methylsulfonyl)-1-oxoisoindolin-5-yl)-N-(tetrahydro-2H-pyran-4-yl)imidazo[1,2-a]pyrazine-6-carboxamide, trifluoroacetate salt]
≥ 7.00 | ≤ 6.00 | > 5.70 | C[C@@H](C1CC1)N1Cc2cc(-c3cnc4c(N)nc(C(F)(F)F)cn34)cc(C(O)(CO)C(F)(F)F)c2C1=O (mixture of isomers) [Example 40, 5-(8-Amino-6-(trifluoromethyl)imidazo[1,2-a]pyrazin-3-yl)-2-((S)-1-cyclopropylethyl)-7-(1,1,1-trifluoro-2,3-dihydroxypropan-2-yl)isoindolin-1-one, trifluoroacetate salt]
≥ 7.00 | > 6.00 | ≥ 6.30 | Cc1[nH]ncc1-c1cn2c(-c3cc4c(c(S(C)(=O)=O)c3)C(=O)N([C@@H](C)C3CC3)C4)cnc2c(N)n1 [Example 37, (S)-5-(8-Amino-6-(5-methyl-1H-pyrazol-4-yl)imidazo[1,2-a]pyrazin-3-yl)-2-(1-cyclopropylethyl)-7-(methylsulfonyl)isoindolin-1-one, trifluoroacetate salt]
≥ 7.00 | ≥ 6.30 | ≥ 6.30 | C[C@@H](C1CC1)N1Cc2cc(-c3cnc4c(N)nc(-c5cnn(C)c5)cn34)cc(S(C)(=O)=O)c2C1=O [Example 35, (S)-5-(8-Amino-6-(1-methyl-1H-pyrazol-4-yl)imidazo[1,2-a]pyrazin-3-yl)-2-(1-cyclopropylethyl)-7-(methylsulfonyl)isoindolin-1-one, trifluoroacetate salt]

Compound | pIC50 [1] | pIC50 [2] | pIC50 [3]
C[C@@H](C1CC1)N1Cc2cc(-c3cnc4c(N)nc(C(=O)N5CCC5)cn34)cc(S(C)(=O)=O)c2C1=O [Example 29a, (S)-5-(8-Amino-6-(azetidine-1-carbonyl)imidazo[1,2-a]pyrazin-3-yl)-2-(1-cyclopropylethyl)-7-(methylsulfonyl)isoindolin-1-one, trifluoroacetate salt] | ≥ 7.00 | ≤ 6.00 | > 5.70
